Test results reported in patent US20240018122A1, “PYRIDAZINYL AMINO DERIVATIVES AS ALK5 INHIBITORS” (CHIESI FARMACEUTICI S.P.A., priority 2020, published 2024).
pIC50: −log10 of the molar value.

The molecules below were run against human ALK5 (Homo sapiens (Human), UniProt P36897) (assay: ADP-GLO Kinases assay, inhibitory activity on ALK5). Details: not given.
Type: biochemical
Experimental: The enzymatic activity of compounds of the present invention was monitored measuring the formation of ADP using the ADP-GLO Kinases assay. Following the incubation of the purified enzyme, a substrate and ATP, the produced ADP was converted into ATP, which in turn was converted into light by Ultra-Glo Luciferase. The luminescent signal positively correlated with ADP amount and kinase activity. […] The assay was performed in 384-well format and was validated using a selection of reference compounds that was tested in 11 point concentration-response curve.

Sequence of human ALK5 (P36897 80-503 limits assumed): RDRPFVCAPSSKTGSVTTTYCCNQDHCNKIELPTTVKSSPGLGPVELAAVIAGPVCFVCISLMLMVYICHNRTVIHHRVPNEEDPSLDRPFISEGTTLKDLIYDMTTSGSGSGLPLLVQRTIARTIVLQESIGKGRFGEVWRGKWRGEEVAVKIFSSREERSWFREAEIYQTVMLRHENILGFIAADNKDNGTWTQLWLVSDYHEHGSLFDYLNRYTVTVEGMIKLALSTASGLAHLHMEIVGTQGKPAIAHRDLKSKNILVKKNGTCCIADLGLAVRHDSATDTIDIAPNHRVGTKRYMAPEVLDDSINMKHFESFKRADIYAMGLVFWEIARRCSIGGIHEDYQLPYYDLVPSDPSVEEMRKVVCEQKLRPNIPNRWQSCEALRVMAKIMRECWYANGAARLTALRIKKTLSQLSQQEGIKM

Row | SMILES | pIC50
1 | CN1CCN(C(=O)Oc2ccc3c(Nc4cnnc(-c5cc(Cl)ccc5F)c4)ccnc3c2)CC1 [Example 28, 4-{[6-(5-Chloro-2-Fluorophenyl)Pyridazin-4-Yl]Amino}Quinolin-7-Yl 4-Methylpiperazine-1-Carboxylate] | 8.30 to 9.00
2 | Cc1nnc(-c2cc(Cl)ccc2F)cc1Nc1ccnc2cc(OC(=O)N3C[C@H]4C[C@@H]3CN4C)ccc12 [Example 159, 4-{[6-(5-chloro-2-fluorophenyl)-3-methylpyridazin-4-yl]amino}quinolin-7-yl (1R,4R)-5-methyl-2,5-diazabicyclo[2.2.1]heptane-2-carboxylate] | > 9.00
3 | Cc1nnc(-c2cc(Cl)ccc2F)cc1Nc1ccnc2cc(OC(=O)N3C[C@@H]4C[C@H]3CN4C)ccc12 [Example 160, 4-{[6-(5-Chloro-2-Fluorophenyl)-3-Methylpyridazin-4-Yl]Amino}Quinolin-7-Yl (1S,4S)-5-Methyl-2,5-Diazabicyclo[2.2.1]Heptane-2-Carboxylate] | > 9.00
4 | Cc1nnc(-c2cc(Cl)ccc2F)cc1Nc1ccnc2cc(OC(=O)N3CCN(CCC4CCN(C)CC4)C(C(=O)OC4COC4)C3)ccc12 (stereo not shown) [Example 168, 1-(4-{[6-(5-chloro-2-fluorophenyl)-3-methylpyridazin-4-yl]amino}quinolin-7-yl) 3-oxetan-3-yl 4-[2-(1-methylpiperidin-4-yl)ethyl]piperazine-1,3-dicarboxylate] | 8.30 to 9.00

Same assay, conditions: purified recombinant human ALK5 2.6 nM, TGFβ1 peptide substrate, 25° C, 150 min incubation, ADP-Glo detection; read-out: ALK5 IC50

Row | SMILES | pIC50
5 | Cc1nnc(-c2cc(Cl)ccc2F)cc1Nc1ccnc2[nH]c(C(=O)N(C)CCN3CCN(C)CC3)cc12 [Example 50, 4-{[6-(5-Chloro-2-Fluorophenyl)-3-Methylpyridazin-4-Yl]Amino}-N-Methyl-N-[2-(4-Methylpiperazin-1-Yl)Ethyl]-1H-Pyrrolo[2,3-b]Pyridine-2-Carboxamide] | > 9.00
6 | CN(CCOc1ccc2c(Nc3cnnc(-c4cc(Cl)ccc4F)c3)ccnc2c1)C1COC1 [Example 42, N-[6-(5-Chloro-2-Fluorophenyl)Pyridazin-4-Yl]-7-{2-[Methyl(Oxetan-3-Yl)Amino]Ethoxy}Quinolin-4-Amine] | > 9.00
7 | CS(=O)(=O)NCCN1CCN(CCOc2ccc3c(Nc4cnnc(-c5cc(Cl)ccc5F)c4)ccnc3c2)CC1 [Example 67, N-[2-(4-{2-[(4-{[6-(5-Chloro-2-Fluorophenyl)Pyridazin-4-Yl]Amino}Quinolin-7-Yl)Oxy]Ethyl}Piperazin-1-Yl)Ethyl]Methanesulfonamide] | > 9.00
8 | O=C(CCN1CCCN(CC(F)(F)F)C1)Nc1cc(Nc2cnnc(-c3cc(Cl)ccc3F)c2)ccn1 [Example 59] | 8.30 to 9.00
9 | CN1CCN(CCOc2ccc3c(Nc4cnnc(-c5cc(Cl)ccc5F)c4)ccnc3c2)C1 [Example 90, N-[6-(5-Chloro-2-Fluorophenyl)Pyridazin-4-Yl]-7-[2-(3-Methylimidazolidin-1-Yl)Ethoxy]Quinolin-4-Amine] | > 9.00
10 | O=C(Oc1ccc2c(Nc3cnnc(-c4cc(Cl)ccc4F)c3)ccnc2c1)N1CCC(N2CCC2)CC1 [Example 134, 4-{[6-(5-Chloro-2-Fluorophenyl)Pyridazin-4-Yl]Amino}Quinolin-7-Yl 4-(Azetidin-1-Yl)Piperidine-1-Carboxylate] | > 9.00
11 | Cc1nnc(-c2cc(Cl)ccc2F)cc1Nc1ccnc2cc(OCCN3CCN(C)CC3)ccc12 [Example 48, N-[6-(5-Chloro-2-Fluorophenyl)-3-Methylpyridazin-4-Yl]-7-[2-(4-Methylpiperazin-1-Yl)Ethoxy]Quinolin-4-Amine] | > 9.00
12 | CC(C)c1ccc(F)c(-c2cc(Nc3ccnc4cc(OCCN5CCN(C)CC5)ccc34)cnn2)c1 [Example 37, N-{6-[2-Fluoro-5-(Propan-2-Yl)Phenyl]Pyridazin-4-Yl}-7-[2-(4-Methylpiperazin-1-Yl)Ethoxy]Quinolin-4-Amine] | > 9.00
13 | CNCCNCCC(=O)Nc1cc(Nc2cc(-c3cc(Cl)ccc3F)nnc2C)ccn1 [Example 93, N-(4-{[6-(5-Chloro-2-Fluorophenyl)-3-Methylpyridazin-4-Yl]Amino}Pyridin-2-Yl)-3-{[2-(Methylamino)Ethyl]Amino}Propanamide] | > 9.00
14 | CS(=O)(=O)N1CCN(CCOc2ccc3c(Nc4cnnc(-c5cc(Cl)ccc5F)c4)ccnc3c2)CC1 [Example 36, N-[6-(5-Chloro-2-Fluorophenyl)Pyridazin-4-Yl]-7-[2-(4-Methanesulfonylpiperazin-1-Yl)Ethoxy]Quinolin-4-Amine] | > 9.00
15 | COC(=O)NCCN1CCN(CCOc2ccc3c(Nc4cnnc(-c5cc(Cl)ccc5F)c4)ccnc3c2)CC1 [Example 77, Methyl N-[2-(4-{2-[(4-{[6-(5-Chloro-2-Fluorophenyl)Pyridazin-4-Yl]Amino}Quinolin-7-Yl)Oxy]Ethyl}Piperazin-1-Yl)Ethyl]Carbamate] | > 9.00
16 | CN1CC[C@H](OC(=O)c2ccc3c(Nc4cnnc(-c5cc(Cl)ccc5F)c4)ccnc3c2)C1 [Example 58, (3S)-1-Methylpyrrolidin-3-Yl 4-{[6-(5-Chloro-2-Fluorophenyl)Pyridazin-4-Yl]Amino}Quinoline-7-Carboxylate] | 8.30 to 9.00

Continued, values first:

Row | pIC50 | SMILES
17 | > 9.00 | COC(=O)CC1CNCCN1CCC(=O)Nc1cc(Nc2cc(-c3cc(Cl)ccc3F)nnc2C)ccn1 (stereo not shown) [Example 102, Methyl 2-(1-{2-[(4-{[6-(5-Chloro-2-Fluorophenyl)-3-Methylpyridazin-4-Yl]Amino}Pyridin-2-Yl)Carbamoyl]Ethyl}Piperazin-2-Yl)Acetate]
18 | > 9.00 | COC(=O)CC1CN(C)CCN1CCC(=O)Nc1cc(Nc2cc(-c3cc(Cl)ccc3F)nnc2C)ccn1 (stereo not shown) [Example 101, methyl 2-(1-{2-[(4-{[6-(5-chloro-2-fluorophenyl)-3-methylpyridazin-4-yl]amino}pyridin-2-yl)carbamoyl]ethyl}-4-methylpiperazin-2-yl)acetate]
19 | > 9.00 | COC(=O)CC1CN(CCC(=O)Nc2cc(Nc3cc(-c4cc(Cl)ccc4F)nnc3C)ccn2)CCN1 (stereo not shown) [Example 97, Methyl 2-(4-{2-[(4-{[6-(5-Chloro-2-Fluorophenyl)-3-Methylpyridazin-4-Yl]Amino}Pyridin-2-Yl)Carbamoyl]Ethyl}Piperazin-2-Yl)Acetate]
20 | > 9.00 | Cc1nnc(-c2cc(Cl)ccc2F)cc1Nc1ccnc(NC(=O)CN2CCCNCC2)c1 [Example 154, N-(4-{[6-(5-Chloro-2-Fluorophenyl)-3-Methylpyridazin-4-Yl]Amino}Pyridin-2-Yl)-2-(1,4-Diazepan-1-Yl)Acetamide]
21 | > 9.00 | Nc1cc(Nc2cc(-c3cc(Cl)ccc3F)nnc2C(F)(F)F)ccn1 [Example 180, N4-[6-(5-Chloro-2-Fluorophenyl)-3-(Trifluoromethyl)Pyridazin-4-Yl]Pyridine-2,4-Diamine]
22 | > 9.00 | Cc1nnc(-c2cc(Cl)ccc2F)cc1Nc1ccnc(NC(=O)N2CCC3(CC2)CN(C)C3)c1 [Example 149, N-(4-{[6-(5-Chloro-2-Fluorophenyl)-3-Methylpyridazin-4-Yl]Amino}Pyridin-2-Yl)-2-Methyl-2,7-Diazaspiro[3.5]Nonane-7-Carboxamide]
23 | > 9.00 | CN1CCN(CCOc2ccc3c(Nc4cc(-c5cc(Cl)ccc5F)nnc4CO)ccnc3c2)CC1 [Example 177, [6-(5-Chloro-2-Fluorophenyl)-4-({7-[2-(4-Methylpiperazin-1-Yl)Ethoxy]Quinolin-4-Yl}Amino)Pyridazin-3-Yl]Methanol]
24 | > 9.00 | Cc1nnc(-c2cc(Cl)ccc2F)cc1Nc1ccnc(NC(=O)CCCN2CCCN(C)CC2)c1 [Example 161, N-(4-{[6-(5-Chloro-2-Fluorophenyl)-3-Methylpyridazin-4-Yl]Amino}Pyridin-2-Yl)-4-(4-Methyl-1,4-Diazepan-1-Yl)Butanamide]
25 | > 9.00 | Cc1nnc(-c2cc(Cl)ccc2F)cc1Nc1ccnc(NC(=O)CCN2CCN(C)C(C(=O)OC3COC3)C2)c1 (stereo not shown) [Example 129, oxetan-3-yl 4-{2-[(4-{[6-(5-chloro-2-fluorophenyl)-3-methylpyridazin-4-yl]amino}pyridin-2-yl)carbamoyl]ethyl}-1-methylpiperazine-2-carboxylate]
26 | > 9.00 | COC(=O)N(C)CCN1CCN(CC(=O)Nc2cc(Nc3cc(-c4cc(Cl)ccc4F)nnc3C)ccn2)CC1 [Example 107, Methyl N-[2-(4-{[(4-{[6-(5-Chloro-2-Fluorophenyl)-3-Methylpyridazin-4-Yl]Amino}Pyridin-2-Yl)Carbamoyl]Methyl}Piperazin-1-Yl)Ethyl]-N-Methylcarbamate]
27 | > 9.00 | Cc1nnc(-c2cc(Cl)ccc2F)cc1Nc1ccnc(NC(=O)[C@H]2C[C@@H](N3CCN(C)CC3)C2)c1 [Example 162, Cis N-(4-{[6-(5-Chloro-2-Fluorophenyl)-3-Methylpyridazin-4-Yl]Amino}Pyridin-2-Yl)-3-(4-Methylpiperazin-1-Yl)Cyclobutane-1-Carboxamide]
28 | > 9.00 | Cc1nnc(-c2cc(Cl)ccc2F)cc1Nc1ccnc(NC(=O)CCN2CCSCC2)c1 [Example 120, N-(4-{[6-(5-Chloro-2-Fluorophenyl)-3-Methylpyridazin-4-Yl]Amino}Pyridin-2-Yl)-3-(Thiomorpholin-4-Yl)Propanamide]
29 | > 9.00 | Cc1nnc(-c2cc(Cl)ccc2F)cc1Nc1ccnc(NC(=O)CCN2CCN(C)CC2CO)c1 (stereo not shown) [Example 163, N-(4-{[6-(5-chloro-2-fluorophenyl)-3-methylpyridazin-4-yl]amino}pyridin-2-yl)-3-[2-(hydroxymethyl)-4-methylpiperazin-1-yl]propanamide]
30 | > 9.00 | CN1CCN(CC(=O)Nc2cc(Nc3cc(-c4cc(Cl)ccc4F)nnc3CO)ccn2)CC1 [Example 176, N-(4-{[6-(5-chloro-2-fluorophenyl)-3-(hydroxymethyl)pyridazin-4-yl]amino}pyridin-2-yl)-2-(4-methylpiperazin-1-yl)acetamide]
31 | > 9.00 | Cc1nnc(-c2cc(Cl)ccc2F)cc1Nc1ccnc(NC(=O)CCN2CCC(F)(F)CC2)c1 [Example 139, N-(4-{[6-(5-Chloro-2-Fluorophenyl)-3-Methylpyridazin-4-Yl]Amino}Pyridin-2-Yl)-3-(4,4-Difluoropiperidin-1-Yl)Propanamide]
